Consider 20 molecules from patent US9873702B2, “Heterocyclic compounds as biogenic amine transport modulators” (Southern Research Institute, priority 2014, dated 2018).

The target in series [1] is norepinephrine transporter (NET) (Rattus norvegicus, UniProt Q9WTR4). Nature of the series: Norepinephrine reuptake ([^3H]norepinephrine uptake) inhibition in rat brain synaptosomes. The settings on record: for NE Uptake Emax (% I ± SD): maximal inhibition from dose-response fit.
Experimental: Freshly removed whole brain minus cerebellum and caudate was homogenized in 10% ice-cold sucrose with 12 strokes of a hand-held Potter-Elvehjem homogenizer followed by centrifugation at 1000×g for 10 minutes. The supernatants were saved on ice and used immediately. Transporter activity at NET was assessed using 10 nM [^3H]norepinephrine. […] Uptake inhibition assays were conducted at 37° C. and were initiated by adding 100 μL of tissue to 900 μL assay buffer containing test drug and [^3H]norepinephrine. Test drugs were diluted in assay buffer containing 1 mg/mL bovine serum albumin. Nonspecific uptake was measured by incubating in the presence of 10 μM indatraline. The reactions were stopped after 10 minutes by rapid vacuum filtration with a cell harvester (BRANDEL) over GF/B filters (Whatman) presoaked in wash buffer maintained at 25° C. (10 mM Tris-HCl, pH 7.4/150 mM NaCl). Filters were rinsed with 6 mL wash buffer and retained tritium was quantified by a MicroBeta liquid scintillation counter (PerkinElmer) after overnight extraction in 0.6 mL of liquid scintillation cocktail (Cytoscint, ICN). The data from three experiments were pooled and fit to a dose-response curve equation (using Kaleidagraph), to yield an Emax and EC50 value.
The data from three experiments were pooled and fit to a dose-response curve equation (using KaleidaGraph; Synergy Software, Reading, Pa.) to yield an Emax and IC50 value.
Series [2] addresses dopamine transporter (DAT) (Rattus norvegicus, UniProt P23977). Nature of the series: Dopamine reuptake ([^3H]dopamine uptake) inhibition in rat brain synaptosomes.
The next series concerns the target T1, DAT (Rattus norvegicus, UniProt P23977).
T1 construct: from tissue; host or cells: rat caudate membranes
Nature of the series: Dopamine transporter binding, inhibition of [^3H]WIN35428 binding in rat caudate membranes. As to conditions: 2 h; read-out: DAT Binding εmax. As to the method: The ability of test drugs to inhibit [^3H]WIN35428 binding to DAT in rat caudate membranes was assessed as follows. For each experiment, caudates from four rat brains were suspended in 15 mL ice cold assay buffer (50 mM sodium phosphate pH 7.4) and homogenized using a polytron (setting 6, 20 sec). The homogenate was centrifuged at 30,000×g for 10 minutes at 4° C. The pellet was resuspended with vigorous vortexing in 15 mL fresh ice cold assay buffer, and the centrifugation was repeated. The pellet was resuspended in 15 mL fresh ice cold assay buffer with vigorous vortexing followed by six strokes with a glass-on-glass hand-held homogenizer and was diluted to a final volume of 235 mL in ice cold assay buffer. [^3H]WIN35428 was diluted to 10 nM in assay buffer that contained 25 μg/mL chymostatin, 25 μg/mL leupeptin, 0.1 mM EDTA, and 0.1 mM EGTA. Each assay tube contained 0.75 mL membrane preparation, 0.15 mL test drug diluted in assay buffer containing 1 mg/mL bovine serum albumin, and 0.1 mL [^3H]WIN35428 preparation (final concentration of 1 nM). Assays were initiated by the addition of membranes and were terminated after 2 hours at 25° C. by rapid vacuum filtration. Retained tritium was measured as described. The data from three experiments were pooled and fit to a dose-response curve equation (using Kaleidagraph), to yield an Emax and EC50 value.

The target in series [3] is T2, serotonin transporter (SERT) (Rattus norvegicus, UniProt P31652).
T2 construct: Freshly removed whole brain minus cerebellum and caudate was homogenized; from tissue; host or cells: rat whole brain minus cerebellum and caudate, synaptosomes
T2 sequence (P31652 whole entry): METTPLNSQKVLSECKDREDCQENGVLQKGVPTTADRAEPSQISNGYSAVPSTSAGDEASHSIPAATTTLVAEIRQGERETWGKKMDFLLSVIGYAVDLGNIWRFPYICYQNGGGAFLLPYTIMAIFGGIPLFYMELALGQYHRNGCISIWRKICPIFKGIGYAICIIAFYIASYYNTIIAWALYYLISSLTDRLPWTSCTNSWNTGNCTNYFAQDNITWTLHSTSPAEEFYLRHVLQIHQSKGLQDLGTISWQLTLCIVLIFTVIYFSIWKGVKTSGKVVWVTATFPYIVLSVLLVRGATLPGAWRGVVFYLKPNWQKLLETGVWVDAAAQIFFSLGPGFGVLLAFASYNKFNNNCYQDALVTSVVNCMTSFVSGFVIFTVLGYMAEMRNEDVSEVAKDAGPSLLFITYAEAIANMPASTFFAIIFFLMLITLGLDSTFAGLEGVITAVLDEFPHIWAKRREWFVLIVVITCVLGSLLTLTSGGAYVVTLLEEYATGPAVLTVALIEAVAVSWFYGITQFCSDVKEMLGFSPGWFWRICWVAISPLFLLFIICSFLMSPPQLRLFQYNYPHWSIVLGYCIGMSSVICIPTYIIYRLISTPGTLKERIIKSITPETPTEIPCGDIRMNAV
The series is described as follows: Serotonin reuptake ([^3H]serotonin uptake) inhibition in rat brain synaptosomes. Type of series: biochemical.

Where [4] appears, read: read-out: NET Uptake IC50, mean ± S.D., n = 3.
The mark [5] stands for this setting: DAT Uptake IC50, [3H]DA uptake inhibition, mean ± S.D., n = 3.
[6] abbreviates: mean ± S.D., n = 3, read-out: SERT Uptake IC50.
Setting [7] is: rat brain synaptosomes, 10 nM [^3H]norepinephrine.
Setting [8] is: read-out: NE Uptake EC50 (nM ± SD), rat brain synaptosomes, 10 nM [^3H]norepinephrine, 10 min, 37° C.
[9] abbreviates: DA Uptake EC50 (nM ± SD), rat caudate synaptosomes, 5 nM [^3H]dopamine, 15 min, 25° C., three experiments pooled.
Where [10] appears, read: read-out: DA Uptake Emax (% I ± SD).

Like-named read-outs stand apart in the source and are kept apart here.

One may read the melting point as the temperature of the solid-liquid transition.

T1 sequence (P23977 whole entry): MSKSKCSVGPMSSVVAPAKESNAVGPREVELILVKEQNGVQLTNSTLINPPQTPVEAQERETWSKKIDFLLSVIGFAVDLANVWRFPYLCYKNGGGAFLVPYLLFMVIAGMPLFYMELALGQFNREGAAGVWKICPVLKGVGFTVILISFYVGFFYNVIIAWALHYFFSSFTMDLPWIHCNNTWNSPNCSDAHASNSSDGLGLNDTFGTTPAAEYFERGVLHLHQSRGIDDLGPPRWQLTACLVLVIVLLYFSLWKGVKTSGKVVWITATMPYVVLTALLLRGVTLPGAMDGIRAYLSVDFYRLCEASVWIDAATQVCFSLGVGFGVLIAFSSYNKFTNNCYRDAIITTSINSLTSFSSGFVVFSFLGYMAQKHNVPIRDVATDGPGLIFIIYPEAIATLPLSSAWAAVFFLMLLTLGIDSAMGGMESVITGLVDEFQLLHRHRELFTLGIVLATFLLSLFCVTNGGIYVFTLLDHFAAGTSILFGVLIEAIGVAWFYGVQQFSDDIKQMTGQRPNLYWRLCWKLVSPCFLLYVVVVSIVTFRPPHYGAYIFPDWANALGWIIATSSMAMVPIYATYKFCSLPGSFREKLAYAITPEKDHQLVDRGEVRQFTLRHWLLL
Sequence of dopamine transporter (DAT) (P23977 whole entry): as above

On to `CS(=O)(=O)Nc1ccc(-c2nc(NCC(O)(c3ccccc3)c3ccccc3)c3ccccc3n2)cc1` [SRI-30504], for which the “NET Uptake Emax” value in series [1] (mean ± S.D., n = 3) is on record as 70 ± 2%. In addition, the IC50 in series [1] (setting [4]) came to 426 ± 49 nM; in series [2] (setting [5]), 11 ± 2 nM; in series [3] (setting [6]), 50 ± 14 nM. The Emax on DAT was 47 ± 7%.

For `CS(=O)(=O)Nc1ccc(-c2nc(NCC(c3ccccc3)c3ccncc3)c3ccccc3n2)cc1` (centres unmarked) [SRI-30524], the “NET Uptake Emax” value in series [1] (mean ± S.D., n = 3) was 76 ± 2%. The IC50 in series [1] (setting [4]) came to 44 ± 6 nM; in series [3] (setting [6]), 8.7 ± 0.9 nM.

Take `Cc1cc(NS(C)(=O)=O)ccc1-c1nc(NCC(c2ccccc2)c2ccccc2)c2ccccc2n1` [SRI-30828]: in series [1] (mean ± S.D., n = 3), the “NET Uptake Emax” value came to 65 ± 3%. Besides, the IC50 was determined as 144 ± 30 nM in series [1] (setting [4]), 8.9 ± 1.6 nM in series [2] (setting [5]) and 20 ± 5 nM in series [3] (setting [6]). In addition, at DAT, the Emax was 60 ± 7%.

In the case of `Cc1cc(NS(C)(=O)=O)ccc1-c1nc(NCC(c2ccccc2)c2ccncc2)c2ccccc2n1` (centres unmarked) [SRI-31039], in series [1] (mean ± S.D., n = 3), the “NET Uptake Emax” value stood at 71 ± 3%. For the same molecule, the values for the IC50 in series [1] (setting [4]), in series [2] (setting [5]) and in series [3] (setting [6]) were 31 ± 7 nM, 7.4 ± 2 nM and 8 ± 2.8 nM, respectively. Besides, the Emax on DAT stood at 72 ± 7%.

Take `CS(=O)(=O)Nc1ccc(-c2nc(NCC(c3ccccc3)c3ccccc3)c3ccccc3n2)c(Cl)c1` [SRI-31043]: the “NET Uptake Emax” value in series [1] (mean ± S.D., n = 3) is 67 ± 2%. Further, the IC50 in series [1] (setting [4]) turned out to be 47 ± 10 nM; in series [2] (setting [5]), 11 ± 1 nM; in series [3] (setting [6]), 22 ± 5 nM. Further, on DAT, the Emax is 30 ± 3%.

As to `COC(=O)[C@H]1[C@@H](OC(=O)c2ccccc2)C[C@@H]2CC[C@H]1N2C` [cocaine, reference compound], the “NET Uptake Emax” value in series [1] (mean ± S.D., n = 3) was determined as 102 ± 2%. The Emax in series [2] (read-out: DAT Uptake Emax) was found to be 100 ± 2%; in series [3] (read-out: SERT Uptake Emax), 98 ± 2%.

In the case of `CSc1ncc(-c2nc(NCC(c3ccccc3)c3ccccc3)c3ccccc3n2)cn1` [compound 30, N-(2,2-Diphenylethyl)-2-(2-(Methylthio)Pyrimidin-5-yl)Quinazolin-4-Amine], in series [1] (mean ± S.D., n = 3), the “NET Uptake Emax” value was determined as 62 ± 3%. For the same molecule, in series [1] (setting [7]), the “NE Uptake Emax (% I ± SD)” value worked out at 62 ± 3 % I. Further, the IC50 in series [1] (setting [8]) is 204 ± 47 nM; in series [1] (setting [4]), 204 ± 47 nM; in series [2] (setting [5]) it was 9 ± 1.5 nM; in series [3] (setting [6]), 56 ± 21 nM. Further, the Emax in series [2] (read-out: DAT Uptake Emax) amounted to 71 ± 2%; at DAT, 63 ± 4%; in series [3] (mean ± S.D., n = 3, read-out: SERT Uptake Emax) it was 52 ± 3%.

Take `OC(CNc1nc(-c2ccc3nccn3c2)nc2ccccc12)(c1ccccc1)c1ccccc1` [compound 96, 2-((2-(Imidazo[1,2-A]Pyridin-6-yl)Quinazolin-4-yl)Amino)-1,1-Diphenylethanol]: the “NE Uptake Emax (% I ± SD)” value in series [1] (setting [7]) is recorded as 65 ± 3 % I. Besides, the IC50 in series [1] (setting [8]) came to 98 ± 23 nM; in series [2] (setting [9]), 9.2 ± 1.2 nM; in series [3] (rat brain synaptosomes, 5 nM [^3H]serotonin, 30 min, 25° C., read-out: 5HT Uptake EC50 (nM ± SD)) it was 16 ± 5 nM. Besides, the Emax in series [2] (setting [10]) amounted to 70 ± 1%; in series [3] (rat brain synaptosomes, 5 nM [^3H]serotonin, maximal inhibition from dose-response fit, read-out: 5HT Uptake Emax (% I ± SD)) it was 55 ± 2%.

With `Cc1cc2nccn2cc1-c1nc(NCC(C)c2ccccc2)c2ccccc2n1` (centres unmarked) [compound 184, 2-(7-Methylimidazo[1,2-A]Pyridin-6-yl)-N-(2-Phenylpropyl)Quinazolin-4-Amine], the melting point fell in the range of 208 to 212 °C. Besides, the IC50 in series [2] (setting [9]) came to 5.3 ± 2 nM. Also, in series [2] (setting [10]), the Emax was determined as 81 ± 4%.

Molecule `Cc1cc2nccn2cc1-c1nc(NCC(c2ccncc2)c2ccc[nH]2)c2ccccc2n1` (centres unmarked) [compound 185, 2-(7-Methylimidazo[1,2-A]Pyridin-6-yl)-N-(2-(Pyridin-4-yl)-2-(1H-Pyrrol-2-yl)Ethyl)Quinazolin-4-Amine] yielded a melting point of 214 to 216 °C. For the same molecule, the IC50 in series [2] (setting [9]) amounted to 11 ± 2 nM. The Emax in series [2] (setting [10]) is 71 ± 2%.

Consider `Cc1cc2nccn2cc1-c1nc(NCC(O)c2ccccc2)c2ccccc2n1` (centres unmarked) [compound 186], for which the melting point was in the range of 221 to 224 °C. Further, in series [2] (setting [9]), the IC50 is 14 ± 3 nM. The Emax in series [2] (setting [10]) was 74 ± 2%.

In turn, `COC(CNc1nc(-c2cn3ccnc3cc2C)nc2ccccc12)c1ccccc1` (centres unmarked) [compound 187, N-(2-Methoxy-2-phenylethyl)-2-(7-methylimidazo[1,2-a]pyridin-6-yl)quinazolin-4-amine] registered a melting point of 215 to 218 °C. In series [2] (setting [9]), the IC50 was found to be 5.7 ± 1.6 nM. The Emax in series [2] (setting [10]) was determined as 74 ± 3%.

The molecule `CCC(CNc1nc(-c2cn3ccnc3cc2C)nc2ccccc12)c1ccccc1` (centres unmarked) [compound 188, 2-(7-Methylimidazo[1,2-A]Pyridin-6-yl)-N-(2-Phenylbutyl)Quinazolin-4-Amine] displayed a melting point of 232 to 234 °C. Moreover, the IC50 in series [2] (setting [9]) amounted to 1.4 ± 0.2 nM. Moreover, the Emax in series [2] (setting [10]) was determined as 75 ± 2%.

On to `c1ccc(C(CNc2nc(N3Cc4ccccc4C3)nc3ccccc23)c2ccccc2)cc1` [compound 189, N-(2,2-Diphenylethyl)-2-(Isoindolin-2-yl)Quinazolin-4-Amine], for which the melting point lay in the range of 293 to 295 °C. Also, the IC50 in series [2] (setting [9]) came to 24 ± 7 nM. Also, in series [2] (setting [10]), the Emax was 83 ± 4%.

For the molecule `c1ccc(C(CNc2nc(N3CCc4c([nH]c5ccccc45)C3)nc3ccccc23)c2ccccc2)cc1` [compound 190, 2-(3,4-Dihydro-1H-Pyrido[3,4-B]Indol-2(9H)-yl)-N-(2,2-Diphenylethyl)Quinazolin-4-Amine], the melting point was 185 to 187 °C. The same molecule registered an IC50 in series [2] (setting [9]) of 6.9 ± 2 nM. For the same molecule, the Emax in series [2] (setting [10]) was 80 ± 3%.

Take `c1ccc(C(CNc2nc(N3CCc4[nH]c5ccccc5c4C3)nc3ccccc23)c2ccccc2)cc1` [compound 191, 2-(3,4-Dihydro-1H-Pyrido[4,3-B]Indol-2(5H)-yl)-N-(2,2-Diphenylethyl)Quinazolin-4-Amine]: the melting point fell in the range of 258 to 260 °C. Also, in series [2] (setting [9]), the IC50 was determined as 16 ± 3 nM. In addition, the Emax in series [2] (setting [10]) turned out to be 78 ± 2%.

Take `Cc1cc2nccn2cc1-c1nc(NCC(CN(C)C)c2ccccc2)c2ccccc2n1` (centres unmarked) [compound 192, N1,N1-Dimethyl-N3-(2-(7-Methylimidazo[1,2-A]Pyridin-6-yl)Quinazolin-4-yl)-2-Phenylpropane-1,3-Diamine]: the melting point was in the range of 250 to 252 °C. The molecule also returned an IC50 in series [2] (setting [9]) of 10 ± 3 nM. In addition, the Emax in series [2] (setting [10]) amounted to 77 ± 4%.

Take `c1ccc(C(CNc2nc(N3CCc4ccccc4C3)nc3ccccc23)c2ccccc2)cc1` [compound 193, 2-(3,4-Dihydroisoquinolin-2(1H)-yl)-N-(2,2-Diphenylethyl)Quinazolin-4-Amine]: the melting point is 250 to 253 °C. In addition, the IC50 in series [2] (setting [9]) turned out to be 1.7 ± 0.4 nM. Moreover, in series [2] (setting [10]), the Emax turned out to be 77 ± 3%.

The molecule `CC(C)C(CNc1nc(N2CCc3[nH]ccc3C2)nc2ccccc12)c1ccccc1` (centres unmarked) [compound 201, 2-(6,7-Dihydro-1H-Pyrrolo[3,2-c]Pyridin-5(4H)-yl)-N-(3-Methyl-2-Phenylbutyl)Quinazolin-4-Amine] yielded a melting point of 221 to 223 °C. Besides, in series [2] (setting [9]), the IC50 is 7.2 ± 2.6 nM. Moreover, the Emax in series [2] (setting [10]) came to 88 ± 5%.

For the molecule `c1ccc(CCNc2nc(N3CCc4[nH]ccc4C3)nc3ccccc23)cc1` [compound 202, 2-(6,7-Dihydro-1H-Pyrrolo[3,2-c]Pyridin-5(4H)-yl)-N-Phenethylquinazolin-4-Amine], the melting point was in the range of 161 to 163 °C. The molecule further registered an IC50 in series [2] (setting [9]) of 94 ± 18 nM. Further, the Emax in series [2] (setting [10]) was determined as 100 ± 3%.
